Experiments:
Test in all cases: weeding effect in post-emergence stage
Type in all cases: in vivo
[1] = test system: Alopecurus japonicus
Source text: (§1) The activity level criteria for plant damage (i.e., growth control rate) are as follows: • Level 5: growth control rate is above 85%; • Level 4: growth control rate is greater than or equal to 60% and less than 85%; • Level 3: growth control rate is greater than or equal to 40% and less than 60%; • Level 2: growth control rate is greater than or equal to 20% and less than 40%; • Level 1: growth control rate is greater than or equal to 5% and less than 20%; • Level 0: growth control rate is less than 5%.
(§2) The above growth control rates are fresh weight control rates.
(§3) Experiment on weeding effect in post-emergence stage:
(§4) Monocotyledonous and dicotyledonous weed seeds (Descurainia sophia, Capsella bursa-pastoris, Abutilon theophrasti, Galium aparine, Stellaria media, Lithospermum arvense, Rorippa indica, Alopecurus aequalis, Alopecurus japonicus, Beckmannia syzigachne, Sclerochloa dura, Conyza Canadensis, Phleum paniculatum, Veronica didyma Tenore, Bromus japonicus, Aegilops tauschii, Phalaris arundinacea, Amaranthus retroflexus, Chenopodium album, Commelina communis, Sonchus arvensis, Convolvulus arvensis, Cirsium setosum, Solanum nigrum, Acalypha australis, Digitaria sanguinalis, Echinochloa crusgalli, Setaria viridis, Setaria glauca, Leptochloa chinensis, Monochoria vaginalis, Sagittaria trifolia, Scirpus juncoides, Cyperus rotundus, Cyperus iria, Cyperus difformis, Fimbristylis, Portulaca oleracea, Xanthium sibiricum, Pharbitis nil, Conyza japonica, etc.) and major crop seeds (wheat, corn, rice, soybean, cotton, oilseed rape, millet, sorghum, potato, sesame, ricinus, etc.) were placed in plastic pots filled with soil, then covered with 0.5-2 cm of soil, allowed to grow in a good greenhouse environment. After 2 weeks of sowing, the test plants were treated in the 2-3 leaf stage. The tested compounds of the present invention were respectively dissolved in acetone, then added with Tween 80 and 1.5 liter/ha of emulsifiable concentrate of methyl oleate as synergist, diluted with a certain amount of water to obtain a solution with a certain concentration, and sprayed with a spray tower onto the plants. After the application, the plants were cultured for 3 weeks in the greenhouse, and then the experimental results of the weeding were counted. The doses of the used compounds were 500, 250, 125, 60, 15, 7.5 g a.i./ha, and the averages were obtained by repeating for three times.

[2] = test system: Rorippa indica
Source text: as §1, §2, §3, §4

[3] = test system: Conyza japonica
Source text: as §1, §2, §3, §4

[4] = test system: Beckmannia syzigachne
Source text: as §1, §2, §3, §4

Row | SMILES | weeding effect in post-emergence stage, Alopecurus japonicus (activity level) ([1]; dose 125 g a.i./ha) | weeding effect in post-emergence stage, Rorippa indica (activity level) ([2]; dose 15 g a.i./ha) | weeding effect in post-emergence stage, Rorippa indica (activity level) ([2]; dose 125 g a.i./ha) | weeding effect in post-emergence stage, Conyza japonica (activity level) ([3]; dose 15 g a.i./ha) | weeding effect in post-emergence stage, Conyza japonica (activity level) ([3]; dose 125 g a.i./ha) | weeding effect in post-emergence stage, Beckmannia syzigachne (activity level) ([4]; dose 125 g a.i./ha) | weeding effect in post-emergence stage, Alopecurus japonicus (activity level) ([1]; dose 15 g a.i./ha) | weeding effect in post-emergence stage, Beckmannia syzigachne (activity level) ([4]; dose 15 g a.i./ha)
1 | CCOCC1(C(=O)OCC)CC(c2cc(-n3c(=O)n(C)c(=S)n(C)c3=O)c(F)cc2Cl)=NO1 (racemic) [Compound 43] | 5 (Level 5: growth control rate is above 85%) | 5 (Level 5: growth control rate is above 85%) | 5 (Level 5: growth control rate is above 85%) | 4 (Level 4: growth control rate is greater than or equal to 60% and less than 85%) | 5 (Level 5: growth control rate is above 85%) | 5 (Level 5: growth control rate is above 85%) |  | 
2 | CCOC(=O)COCC1(C(=O)OCC)CC(c2cc(-n3c(=O)n(C)c(=S)n(C)c3=O)c(F)cc2Cl)=NO1 (racemic) [Compound 54] | 5 (Level 5: growth control rate is above 85%) |  | 5 (Level 5: growth control rate is above 85%) |  | 5 (Level 5: growth control rate is above 85%) | 5 (Level 5: growth control rate is above 85%) |  | 
3 | COC(=O)C1(c2ccccc2)CC(c2cc(-n3c(=O)n(C)c(=S)n(C)c3=O)c(F)cc2Cl)=NO1 (racemic) [Compound 56] | 5 (Level 5: growth control rate is above 85%) |  | 5 (Level 5: growth control rate is above 85%) |  | 5 (Level 5: growth control rate is above 85%) | 5 (Level 5: growth control rate is above 85%) |  | 
4 | COC(=O)C1(Cc2ccccc2)CC(c2cc(-n3c(=O)n(C)c(=S)n(C)c3=O)c(F)cc2Cl)=NO1 (racemic) [Compound 59] | 5 (Level 5: growth control rate is above 85%) |  | 5 (Level 5: growth control rate is above 85%) |  | 5 (Level 5: growth control rate is above 85%) | 5 (Level 5: growth control rate is above 85%) |  | 
5 | CCOC(=O)C1(CC)CC(c2cc(-n3c(=O)cc(C(F)(F)F)n(C)c3=O)c(F)cc2Cl)=NO1 (racemic) [Compound 105] | 5 (Level 5: growth control rate is above 85%) | 5 (Level 5: growth control rate is above 85%) | 5 (Level 5: growth control rate is above 85%) | 5 (Level 5: growth control rate is above 85%) | 5 (Level 5: growth control rate is above 85%) | 5 (Level 5: growth control rate is above 85%) | 5 (Level 5: growth control rate is above 85%) | 5 (Level 5: growth control rate is above 85%)
6 | CCOC(=O)C1(C2CC2)CC(c2cc(-n3c(=O)cc(C(F)(F)F)n(C)c3=O)c(F)cc2Cl)=NO1 (racemic) [Compound 119] | 5 (Level 5: growth control rate is above 85%) | 5 (Level 5: growth control rate is above 85%) | 5 (Level 5: growth control rate is above 85%) | 5 (Level 5: growth control rate is above 85%) | 5 (Level 5: growth control rate is above 85%) | 5 (Level 5: growth control rate is above 85%) | 5 (Level 5: growth control rate is above 85%) | 5 (Level 5: growth control rate is above 85%)
7 | CCOC(=O)C1(C2CCC2)CC(c2cc(-n3c(=O)cc(C(F)(F)F)n(C)c3=O)c(F)cc2Cl)=NO1 (racemic) [Compound 126] | 5 (Level 5: growth control rate is above 85%) |  | 5 (Level 5: growth control rate is above 85%) |  | 5 (Level 5: growth control rate is above 85%) | 5 (Level 5: growth control rate is above 85%) |  | 

From patent US12509452B2, “Substituted-isoxazoline-containing aromatic compound, preparation method therefor, herbicidal composition and use thereof” (QINGDAO KINGAGROOT CHEMICAL COMPOUND CO., LTD., priority 2019, dated 2025)
